# From patent US11891634B2, “PDE5A destabilizing domains” (The Board of Trustees of the Leland Stanford Junior …, priority 2017, dated 2024)
# Experiments:
# Type in all cases: cell-based, human
# [1] = test system: HCT 116 cells transduced with the PDE5A DD derived GFP constructs; assay: Response to Tadalafil, GFP expression by FACS in HCT116; settings: for MFI / Stabilization ratio with Tadalafil: 48 hours, HCT116; for Basal expression: Table 21, MFI with DMSO / parental HCT116, Tadalafil experiment
# Protocol: (§1) PDE5AN (#3) was cloned as AcGFP fusion into pELNS vector carrying mCherry marker and packaged in lentiviral vectors. HCT116 cells were transduced with the construct and stable integrants were selected by cell sorting using mCherry marker. Cells were treated with vehicle (dimethyl sulfoxide, DMSO) or varying doses of Tadalafil (TDF) for 48 hrs with doses ranging from 0.01 μM to 100 μM. Following the treatment, cells were analyzed for GFP expression using FACS. Basal expression was calculated as the ratio of GFP signal in the absence of ligand for a given cell line to auto fluorescence of parental HCT-116 cells. Stabilization ratio was calculated as the ratio of the GFP signal observed in the presence of stabilizing ligand to the signal from the same cell line in the absence of ligand.
# HCT 116 cells transduced with the PDE5A DD derived GFP constructs were also tested with increasing doses of Tadalafil. The HCT116 cells were incubated for 48 hours with Tadalafil starting at dose 0.01 μM to 100 μM. The GFP intensity of the Tadalafil treated samples was compared to the parental untransduced HCT116 and DMSO treated cells for each construct. The mean fluorescence intensity was calculated for each sample and used to calculate the stabilization ratios as well as the basal expression for each construct. The stabilization ratios are shown in Table 19 and Table 20 and the basal expression is show in Table 21.
# [2] = test system: HCT 116 cells transduced with the PDE5A DD derived GFP constructs; assay: Response to Vardenafil, GFP expression by FACS in HCT116; settings: for MFI / Stabilization ratio with Vardenafil: 48 hours, HCT116; for Basal: Table 15, MFI with DMSO / parental HCT116, Vardenafil experiment
# Protocol: as §1, with “Mutations were created in PDE5A (535-860) catalytic domain using site directed mutagenesis and the mutants were” for “PDE5AN (#3) was”, “constructs” for “construct”, “10 μM Vardenafil (VDF)” for “varying doses of Tadalafil (TDF)”, “hours.” for “hrs with doses ranging from 0.01 μM to 100 μM.”
# HCT 116 cells transduced with the PDE5A DD derived GFP constructs were also tested with increasing doses of Vardenafil. The HCT116 cells were incubated for 48 hours with Vardenafil starting at a dose of 0.002 μM to 30 μM. The GFP intensity of the Vardenafil treated samples was compared to the parental untransduced HCT116 and DMSO treated cells for each construct. The mean fluorescence intensity was calculated for each sample and used to calculate the stabilization ratios as well as the basal expression for each construct. The GFP expression was measured using flow cytometry and the mean fluorescence intensity (MFI) was calculated for each sample. The stabilization ratios are shown in Table 13 and Table 14 and the basal expression is show in Table 15.
# [3] = test system: HCT116 cells transduced with the constructs; assay: Response to Sildenafil, GFP expression by flow cytometry in HCT116; settings: for MFI / Stabilization ratio with Sildenafil: 48 hours, HCT116; for Basal expression: Table 26, MFI with DMSO / parental HCT116, Sildenafil experiment
# Protocol: Similar experiments were performed in HCT116 cells using sildenafil. The above-mentioned DDs were cloned as AcGFP fusion into pELNS vector carrying mCherry marker and packaged in lentiviral vectors. HCT116 cells were transduced with the constructs and stable integrants were selected by cell sorting using mCherry marker. Cells were treated with sildenafil at the following μM concentrations: 0.01, 0.02, 0.05, 0.14, 0.41, 1.23, 3.7, 11.11, 33.33, and 100 for a duration of 48 hours. The fluorescence was analyzed by flow cytometry and the mean fluorescence intensity was calculated for all samples. […] The stabilization ratios are shown in Table 24 and Table 25 and the basal expression is show in Table 26.
substance,measurement,setting,value
"PDE5AC (#13): AcGFP fused to C-terminal DD 535-860 of PDE5A (Q589R, Y676D, L738H), SEQ ID NO. 24",MFI,[1]; DMSO (no Tadalafil),14416
same,Basal expression,[1],11.26
same,Stabilization ratio with Tadalafil,[1]; Tadalafil 0.01 μM vs DMSO,1.0
same,MFI,[1]; Tadalafil 0.01 μM,14388
same,Stabilization ratio with Tadalafil,[1]; Tadalafil 0.02 μM vs DMSO,1.0
same,MFI,[1]; Tadalafil 0.02 μM,14908
same,Stabilization ratio with Tadalafil,[1]; Tadalafil 0.05 μM vs DMSO,1.1
same,MFI,[1]; Tadalafil 0.05 μM,16488
same,MFI,[1]; Tadalafil 0.14 μM,21292
same,Stabilization ratio with Tadalafil,[1]; Tadalafil 0.41 μM vs DMSO,2.3
same,MFI,[1]; Tadalafil 0.41 μM,33396
same,Stabilization ratio with Tadalafil,[1]; Tadalafil 1.23 μM vs DMSO,4.1
same,MFI,[1]; Tadalafil 1.23 μM,58867
same,Stabilization ratio with Tadalafil,[1]; Tadalafil 3.7 μM vs DMSO,5.7
same,MFI,[1]; Tadalafil 3.7 μM,81755
same,Stabilization ratio with Tadalafil,[1]; Tadalafil 11.11 μM vs DMSO,6.4
same,MFI,[1]; Tadalafil 11.11 μM,92484
same,Stabilization ratio with Tadalafil,[1]; Tadalafil 33.33 μM vs DMSO,6.7
same,MFI,[1]; Tadalafil 33.33 μM,96959
same,Stabilization ratio with Tadalafil,[1]; Tadalafil 100 μM vs DMSO,7.3
same,MFI,[1]; Tadalafil 100 μM,105048
same,MFI,[2]; DMSO (no Vardenafil),14659
same,Basal (DMSO/Parental),"[2]; Table 10, GFP signal without ligand / auto fluorescence of parental HCT-116",11.3
same,Basal,[2],7.50
same,Stabilization ratio with Vardenafil,[2]; Vardenafil 0.002 μM vs DMSO,1.3
same,MFI,[2]; Vardenafil 0.002 μM,18393
same,MFI,[2]; Vardenafil 0.005 μM,27661
same,Stabilization ratio with Vardenafil,[2]; Vardenafil 0.014 μM vs DMSO,4.1
same,MFI,[2]; Vardenafil 0.014 μM,59673
same,Stabilization ratio with Vardenafil,[2]; Vardenafil 0.041 μM vs DMSO,5.3
same,MFI,[2]; Vardenafil 0.041 μM,78117
same,Stabilization ratio with Vardenafil,[2]; Vardenafil 0.123 μM vs DMSO,6.0
same,MFI,[2]; Vardenafil 0.123 μM,88571
same,Stabilization ratio with Vardenafil,[2]; Vardenafil 0.370 μM vs DMSO,6.8
same,MFI,[2]; Vardenafil 0.370 μM,99160
same,Stabilization ratio with Vardenafil,[2]; Vardenafil 1.111 μM vs DMSO,6.8
same,MFI,[2]; Vardenafil 1.111 μM,99377
same,Stabilization ratio with Vardenafil,[2]; Vardenafil 3.333 μM vs DMSO,7.2
same,MFI,[2]; Vardenafil 3.333 μM,105500
same,Stabilization ratio with Vardenafil,[2]; Vardenafil 10 μM vs DMSO,6.7
same,MFI,[2]; Vardenafil 10 μM,97493
same,Stabilization ratio with Vardenafil,[2]; Vardenafil 30 μM vs DMSO,7.2
same,MFI,[2]; Vardenafil 30 μM,105335
same,MFI,[3]; DMSO (no Sildenafil),15122
same,Stabilization ratio with Sildenafil,[3]; Sildenafil 0.01 μM vs DMSO,1.0
same,MFI,[3]; Sildenafil 0.01 μM,14787
same,Stabilization ratio with Sildenafil,[3]; Sildenafil 0.02 μM vs DMSO,1.1
same,MFI,[3]; Sildenafil 0.02 μM,17318
same,MFI,[3]; Sildenafil 0.05 μM,26905
same,Stabilization ratio with Sildenafil,[3]; Sildenafil 0.14 μM vs DMSO,3.2
same,MFI,[3]; Sildenafil 0.14 μM,48611
same,Stabilization ratio with Sildenafil,[3]; Sildenafil 0.41 μM vs DMSO,4.6
same,MFI,[3]; Sildenafil 0.41 μM,69042
same,Stabilization ratio with Sildenafil,[3]; Sildenafil 1.23 μM vs DMSO,5.6
same,MFI,[3]; Sildenafil 1.23 μM,84772
same,Stabilization ratio with Sildenafil,[3]; Sildenafil 3.70 μM vs DMSO,5.5
same,MFI,[3]; Sildenafil 3.70 μM,82519
same,Stabilization ratio with Sildenafil,[3]; Sildenafil 11.11 μM vs DMSO,6.1
same,MFI,[3]; Sildenafil 11.11 μM,92732
same,Stabilization ratio with Sildenafil,[3]; Sildenafil 33.33 μM vs DMSO,6.2
same,MFI,[3]; Sildenafil 33.33 μM,93336
same,Stabilization ratio with Sildenafil,[3]; Sildenafil 100.00 μM vs DMSO,5.0
same,MFI,[3]; Sildenafil 100.00 μM,76090
same,Basal expression,[3],11.7
"PDE5AC (#25): AcGFP fused to C-terminal DD 535-860 of PDE5A (Q541R, F559L, Q589R, H678R, I824T), SEQ ID NO. 35",MFI,[1]; DMSO (no Tadalafil),9297
same,Basal expression,[1],7.26
same,Stabilization ratio with Tadalafil,[1]; Tadalafil 0.01 μM vs DMSO,1.0
same,MFI,[1]; Tadalafil 0.01 μM,9233
same,Stabilization ratio with Tadalafil,[1]; Tadalafil 0.02 μM vs DMSO,1.0
same,MFI,[1]; Tadalafil 0.02 μM,8860
same,Stabilization ratio with Tadalafil,[1]; Tadalafil 0.05 μM vs DMSO,1.0
same,MFI,[1]; Tadalafil 0.05 μM,9404
same,Stabilization ratio with Tadalafil,[1]; Tadalafil 0.14 μM vs DMSO,1.0
same,MFI,[1]; Tadalafil 0.14 μM,9478
same,Stabilization ratio with Tadalafil,[1]; Tadalafil 0.41 μM vs DMSO,1.1
same,MFI,[1]; Tadalafil 0.41 μM,9858
same,Stabilization ratio with Tadalafil,[1]; Tadalafil 1.23 μM vs DMSO,1.3
same,MFI,[1]; Tadalafil 1.23 μM,12432
same,Stabilization ratio with Tadalafil,[1]; Tadalafil 3.7 μM vs DMSO,2.1
same,MFI,[1]; Tadalafil 3.7 μM,19294
same,Stabilization ratio with Tadalafil,[1]; Tadalafil 11.11 μM vs DMSO,3.4
same,MFI,[1]; Tadalafil 11.11 μM,31763
same,Stabilization ratio with Tadalafil,[1]; Tadalafil 33.33 μM vs DMSO,5.8
same,MFI,[1]; Tadalafil 33.33 μM,54151
same,Stabilization ratio with Tadalafil,[1]; Tadalafil 100 μM vs DMSO,7.6
same,Stabilization ratio with Tadalafil,"[1]; Tadalafil 100 μM vs DMSO, listed as PDE5AN (#25)",highest stabilization ratio
same,MFI,[1]; Tadalafil 100 μM,70389
same,MFI,[2]; DMSO (no Vardenafil),9555
same,Basal,[2],4.89
same,Stabilization ratio with Vardenafil,[2]; Vardenafil 0.002 μM vs DMSO,1.0
same,MFI,[2]; Vardenafil 0.002 μM,9737
same,Stabilization ratio with Vardenafil,[2]; Vardenafil 0.005 μM vs DMSO,1.0
same,MFI,[2]; Vardenafil 0.005 μM,9694
same,Stabilization ratio with Vardenafil,[2]; Vardenafil 0.014 μM vs DMSO,1.0
same,MFI,[2]; Vardenafil 0.014 μM,9767
same,Stabilization ratio with Vardenafil,[2]; Vardenafil 0.041 μM vs DMSO,1.1
same,MFI,[2]; Vardenafil 0.041 μM,10468
same,Stabilization ratio with Vardenafil,[2]; Vardenafil 0.123 μM vs DMSO,1.4
same,MFI,[2]; Vardenafil 0.123 μM,13348
same,Stabilization ratio with Vardenafil,[2]; Vardenafil 0.370 μM vs DMSO,2.1
same,MFI,[2]; Vardenafil 0.370 μM,20522
same,Stabilization ratio with Vardenafil,[2]; Vardenafil 1.111 μM vs DMSO,4.1
same,MFI,[2]; Vardenafil 1.111 μM,38958
same,Stabilization ratio with Vardenafil,[2]; Vardenafil 3.333 μM vs DMSO,6.9
same,MFI,[2]; Vardenafil 3.333 μM,66337
same,Stabilization ratio with Vardenafil,[2]; Vardenafil 10 μM vs DMSO,9.9
same,MFI,[2]; Vardenafil 10 μM,94642
same,Stabilization ratio with Vardenafil,[2]; Vardenafil 30 μM vs DMSO,12.7
same,MFI,[2]; Vardenafil 30 μM,120927
same,MFI,[3]; DMSO (no Sildenafil),10217
same,Stabilization ratio with Sildenafil,[3]; Sildenafil 0.01 μM vs DMSO,1.0
same,MFI,[3]; Sildenafil 0.01 μM,10169
same,Stabilization ratio with Sildenafil,[3]; Sildenafil 0.02 μM vs DMSO,0.9
same,MFI,[3]; Sildenafil 0.02 μM,9354
same,Stabilization ratio with Sildenafil,[3]; Sildenafil 0.05 μM vs DMSO,1.0
same,MFI,[3]; Sildenafil 0.05 μM,10120
same,Stabilization ratio with Sildenafil,[3]; Sildenafil 0.14 μM vs DMSO,1.0
same,MFI,[3]; Sildenafil 0.14 μM,10128
same,Stabilization ratio with Sildenafil,[3]; Sildenafil 0.41 μM vs DMSO,1.0
same,MFI,[3]; Sildenafil 0.41 μM,10207
same,Stabilization ratio with Sildenafil,[3]; Sildenafil 1.23 μM vs DMSO,1.2
same,MFI,[3]; Sildenafil 1.23 μM,12328
same,Stabilization ratio with Sildenafil,[3]; Sildenafil 3.70 μM vs DMSO,1.7
same,MFI,[3]; Sildenafil 3.70 μM,17466
same,Stabilization ratio with Sildenafil,[3]; Sildenafil 11.11 μM vs DMSO,2.6
same,MFI,[3]; Sildenafil 11.11 μM,26947
same,Stabilization ratio with Sildenafil,[3]; Sildenafil 33.33 μM vs DMSO,4.6
same,MFI,[3]; Sildenafil 33.33 μM,46897
same,Stabilization ratio with Sildenafil,[3]; Sildenafil 100.00 μM vs DMSO,5.1
same,MFI,[3]; Sildenafil 100.00 μM,51774
same,Basal expression,[3],7.9
